Strand notation (5' to 3'): a small letter for the sugar, then the base; units joined by * are phosphorothioate-linked, units joined directly phosphodiester-linked; [ ] holds rarer units or linkages, { } end groups; capitals alone tell only the bases. e = 2'-O-(2-methoxyethyl) (MOE); [5mC] = 5-methylcytosine; d = 2'-deoxy (DNA)

The first series deals with human PKK mRNA. As to the kind of experiment: Antisense inhibition of human PKK mRNA in HepaRG cells, 5,000 nM (Example 2). The format is cell-based. Conditions: Table 7; HepaRG cells, electroporation with 5,000 nM antisense oligonucleotide, approx. 24 hours; PKK mRNA by RT-PCR (RTS3454), relative to untreated control cells. Put shortly:
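Chimeric MOE gapmers with full phosphorothioate backbones were tested once at 5,000 nM in electroporated HepaRG cells. After about 24 hours, quantitative PCR measured PKK mRNA relative to untreated control cells.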
As to “547375 (eG*eT*eG*eA*eT*dA*dG*dG*dT*dG*d[5mC]*dA*dG*dA*dT*eG*eG*eT*e[5mC]*e[5mC]; antisense) [compound 547375]”, the % inhibition (usually the percentage by which the read-out fell short of the control) stood at 72%. Still for that read-out and setting: the figure for “547376 (eG*eA*eA*eT*eG*dT*dA*dA*dA*dG*dA*dA*dG*dA*dG*eG*e[5mC]*eA*eG*eT; antisense) [compound 547376]” is 43%; for “547377 (e[5mC]*eA*eT*eT*eT*dG*dT*dA*dT*dA*dG*dA*dA*dT*dG*eT*eA*eA*eA*eG; antisense) [compound 547377]” it is 6%. Still for that read-out and setting: the figure for “547378 (eT*eA*e[5mC]*eA*eT*dT*dT*dG*dT*dA*dT*dA*dG*dA*dA*eT*eG*eT*eA*eA; antisense) [compound 547378]” is 0%.

In the case of “547379 (e[5mC]*eT*e[5mC]*eG*eA*dT*dT*dT*dT*d[5mC]*d[5mC]*dA*dT*dA*d[5mC]*eA*eT*eT*eT*eG; antisense) [compound 547379]”, the “% inhibition” value stood at 37%.

Consider “547380 (eT*eG*eA*e[5mC]*eT*d[5mC]*dG*dA*dT*dT*dT*dT*d[5mC]*d[5mC]*dA*eT*eA*e[5mC]*eA*eT; antisense) [compound 547380]”, for which the “% inhibition” value is 42%. The same measure, in the same setting: the figure for “547381 (eT*eG*eT*eG*eA*d[5mC]*dT*d[5mC]*dG*dA*dT*dT*dT*dT*d[5mC]*e[5mC]*eA*eT*eA*e[5mC]; antisense) [compound 547381]” is 49%; for “547382 (e[5mC]*eT*eT*eT*eG*dT*dG*dA*d[5mC]*dT*d[5mC]*dG*dA*dT*dT*eT*eT*e[5mC]*e[5mC]*eA; antisense) [compound 547382]” it is 62%.

On to “547383 (eT*eT*e[5mC]*eT*eT*dT*dG*dT*dG*dA*d[5mC]*dT*d[5mC]*dG*dA*eT*eT*eT*eT*e[5mC]; antisense) [compound 547383]”, for which the “% inhibition” value was found to be 37%. The same measure, in the same setting: the figure for “547384 (eA*eA*eA*e[5mC]*eA*dT*dT*dT*d[5mC]*dT*dT*dT*dG*dT*dG*eA*e[5mC]*eT*e[5mC]*eG; antisense) [compound 547384]” is 50%; for “547385 (eT*eG*eT*eG*e[5mC]*d[5mC]*dA*d[5mC]*dT*dT*dT*d[5mC]*dA*dG*dA*eT*eG*eT*eT*eT; antisense) [compound 547385]” it is 80%; for “547386 (eA*e[5mC]*eT*eT*eG*dG*dT*dG*dT*dG*d[5mC]*d[5mC]*dA*d[5mC]*dT*eT*eT*e[5mC]*eA*eG; antisense) [compound 547386]” it is 78%. On the same count and under the same terms, with “547387 (eT*eG*eG*eT*eG*dT*dT*dT*dT*d[5mC]*dT*dT*dG*dA*dG*eG*eA*eG*eT*eA; antisense) [compound 547387]” the figure was 73%; with “547388 (eT*eA*eT*eG*eG*dT*dG*dT*dT*dT*dT*d[5mC]*dT*dT*dG*eA*eG*eG*eA*eG; antisense) [compound 547388]”, 55%; with “547389 (e[5mC]*eA*eG*eA*eT*dA*dT*dG*dG*dT*dG*dT*dT*dT*dT*e[5mC]*eT*eT*eG*eA; antisense) [compound 547389]”, 61%.

Regarding “547390 (eA*eT*e[5mC]*e[5mC]*eA*dG*dA*dT*dA*dT*dG*dG*dT*dG*dT*eT*eT*eT*e[5mC]*eT; antisense) [compound 547390]”, the “% inhibition” value was 63%. On the same count and under the same terms, with “547391 (eA*eT*eA*eT*e[5mC]*d[5mC]*dA*dG*dA*dT*dA*dT*dG*dG*dT*eG*eT*eT*eT*eT; antisense) [compound 547391]” the figure was 32%; with “547392 (eA*eA*eG*eG*e[5mC]*dT*dA*dT*dA*dT*d[5mC]*d[5mC]*dA*dG*dA*eT*eA*eT*eG*eG; antisense) [compound 547392]”, 81%.

“547393 (eT*eG*e[5mC]*eA*eG*dG*dT*dT*dA*dA*dA*dA*dG*dG*d[5mC]*eT*eA*eT*eA*eT; antisense) [compound 547393]”: the “% inhibition” value turned out to be 73%. Take “547394 (eT*eT*eT*eG*e[5mC]*dA*dG*dG*dT*dT*dA*dA*dA*dA*dG*eG*e[5mC]*eT*eA*eT; antisense) [compound 547394]”: the “% inhibition” value was 29%. With “547395 (eA*eA*eG*eT*eT*d[5mC]*dT*dT*dT*dT*dG*d[5mC]*dA*dG*dG*eT*eT*eA*eA*eA; antisense) [compound 547395]”, the “% inhibition” value was found to be 15%.

As to “547396 (eT*e[5mC]*eA*eG*eG*dT*dA*dA*dA*dG*dT*dT*d[5mC]*dT*dT*eT*eT*eG*e[5mC]*eA; antisense) [compound 547396]”, the “% inhibition” value stood at 49%. The same measure, in the same setting: with “547397 (eG*eT*eT*e[5mC]*eA*dG*dG*dT*dA*dA*dA*dG*dT*dT*d[5mC]*eT*eT*eT*eT*eG; antisense) [compound 547397]” the figure was 27%; with “547398 (e[5mC]*eA*eG*eG*eG*dT*dT*d[5mC]*dA*dG*dG*dT*dA*dA*dA*eG*eT*eT*e[5mC]*eT; antisense) [compound 547398]”, 16%. Still for that read-out and setting: the figure for “547399 (eG*e[5mC]*eA*eG*eG*dG*dT*dT*d[5mC]*dA*dG*dG*dT*dA*dA*eA*eG*eT*eT*e[5mC]; antisense) [compound 547399]” is 10%. Still for that read-out and setting: with “547400 (eT*eG*eG*e[5mC]*eA*dG*dG*dG*dT*dT*d[5mC]*dA*dG*dG*dT*eA*eA*eA*eG*eT; antisense) [compound 547400]” the figure was 0%. Take “547401 (eG*eA*eA*eT*eG*dG*d[5mC]*dA*dG*dG*dG*dT*dT*d[5mC]*dA*eG*eG*eT*eA*eA; antisense) [compound 547401]”: the “% inhibition” value came out at 22%. The same measure, in the same setting: with “547402 (eT*eT*eT*eA*eG*dA*dA*dT*dG*dG*d[5mC]*dA*dG*dG*dG*eT*eT*e[5mC]*eA*eG; antisense) [compound 547402]” the figure was 59%. Same read-out and setting: with “547403 (eA*eT*eT*eT*eT*dA*dG*dA*dA*dT*dG*dG*d[5mC]*dA*dG*eG*eG*eT*eT*e[5mC]; antisense) [compound 547403]” the figure was 10%.

“547404 (eA*eG*eT*e[5mC]*eA*dA*d[5mC]*dT*d[5mC]*d[5mC]*d[5mC]*dG*dG*dG*dT*eA*eA*eA*eT*eT; antisense) [compound 547404]”: the “% inhibition” value is reported as 64%. Same read-out and setting: with “547405 (e[5mC]*eA*eA*eA*eG*dT*d[5mC]*dA*dA*d[5mC]*dT*d[5mC]*d[5mC]*d[5mC]*dG*eG*eG*eT*eA*eA; antisense) [compound 547405]” the figure was 47%; with “547406 (e[5mC]*eT*e[5mC]*e[5mC]*eT*d[5mC]*d[5mC]*dA*dA*dA*dG*dT*d[5mC]*dA*dA*e[5mC]*eT*e[5mC]*e[5mC]*e[5mC]; antisense) [compound 547406]”, 81%; with “547407 (eT*eT*e[5mC]*eA*eA*dT*dT*d[5mC]*dT*dT*d[5mC]*dT*d[5mC]*d[5mC]*dT*e[5mC]*e[5mC]*eA*eA*eA; antisense) [compound 547407]”, 59%. The same measure, in the same setting: the figure for “547408 (eT*e[5mC]*eA*e[5mC]*eA*dT*dT*d[5mC]*dA*dA*dT*dT*d[5mC]*dT*dT*e[5mC]*eT*e[5mC]*e[5mC]*eT; antisense) [compound 547408]” is 84%; for “547409 (eA*eG*eT*e[5mC]*eA*d[5mC]*dA*dT*dT*d[5mC]*dA*dA*dT*dT*d[5mC]*eT*eT*e[5mC]*eT*e[5mC]; antisense) [compound 547409]” it is 67%.

The same series, now with this note: Table 8; HepaRG cells, electroporation with 5,000 nM antisense oligonucleotide, approx. 24 hours; PKK mRNA by RT-PCR (RTS3454), relative to untreated control cells.
On to “547410 (e[5mC]*eA*eA*eG*eT*d[5mC]*dT*d[5mC]*dT*dT*dG*dG*d[5mC]*dA*dA*eA*e[5mC]*eA*eT*eT; antisense) [compound 547410]”, for which the “% inhibition” value came out at 88%.

For “547411 (e[5mC]*eA*eT*e[5mC]*eT*dT*dT*dG*dT*dG*d[5mC]*dA*dA*dG*dT*e[5mC]*eT*e[5mC]*eT*eT; antisense) [compound 547411]”, the “% inhibition” value is 79%.

“547412 (eA*eT*e[5mC]*eA*eT*d[5mC]*dT*dT*dT*dG*dT*dG*d[5mC]*dA*dA*eG*eT*e[5mC]*eT*e[5mC]; antisense) [compound 547412]”: the “% inhibition” value is listed as 73%. Turning to “547414 (eT*eG*eG*eG*eA*dG*dT*dA*dA*dA*dG*dA*dA*dT*dA*eA*eG*eT*eG*eA; antisense) [compound 547414]”, the “% inhibition” value turned out to be 76%. The same measure, in the same setting: the figure for “547415 (eT*e[5mC]*eT*eG*eG*dG*dA*dG*dT*dA*dA*dA*dG*dA*dA*eT*eA*eA*eG*eT; antisense) [compound 547415]” is 71%. Turning to “547416 (e[5mC]*eT*eT*eA*e[5mC]*dA*dG*dT*d[5mC]*dT*dT*d[5mC]*dT*dG*dG*eG*eA*eG*eT*eA; antisense) [compound 547416]”, the “% inhibition” value is recorded as 79%. Same read-out and setting: with “547417 (eT*e[5mC]*e[5mC]*eT*eT*dA*d[5mC]*dA*dG*dT*d[5mC]*dT*dT*d[5mC]*dT*eG*eG*eG*eA*eG; antisense) [compound 547417]” the figure was 68%; with “547418 (e[5mC]*eA*e[5mC]*eT*eT*dA*d[5mC]*dA*d[5mC]*dT*dT*d[5mC]*dT*d[5mC]*dT*eT*e[5mC]*e[5mC]*eT*eT; antisense) [compound 547418]”, 0%.

“547419 (e[5mC]*eT*eT*eA*eA*dG*dA*dA*dA*d[5mC]*dA*d[5mC]*dT*dT*dA*e[5mC]*eA*e[5mC]*eT*eT; antisense) [compound 547419]”: the “% inhibition” value is 51%. Still for that read-out and setting: the figure for “547420 (e[5mC]*e[5mC]*eA*eT*eA*dG*dA*dT*dA*dA*dT*d[5mC]*dT*dT*dA*eA*eG*eA*eA*eA; antisense) [compound 547420]” is 8%; for “547421 (e[5mC]*eA*eT*e[5mC]*e[5mC]*dA*dT*dA*dG*dA*dT*dA*dA*dT*d[5mC]*eT*eT*eA*eA*eG; antisense) [compound 547421]” it is 69%.

These data come from patent US11840686B2, “Modulation of prekallikrein (PKK) expression” (Ionis Pharmaceuticals, Inc., priority 2013, dated 2023).
